Measured values taken from patent US10308650B2, “Pesticidally active tetracyclic derivatives with sulfur containing substituents” (Syngenta Participations AG, priority 2014, dated 2019).
Where two headings read alike, the source gives them in different places.

Legend:
Assay type in all cases: in vivo
[1] = test system: Diabrotica balteata (Corn Root Worm); experiment: Activity against Diabrotica balteata; details: 96 h, read-out: effect in at least one of the two categories (mortality or growth inhibition); for percent effect (mortality or growth inhibition) at 200 ppm: application rate of 200 ppm, maize sprouts, L2 larvae, 4 days after infestation
Procedure: Example B2: Activity Against Diabrotica balteata (Corn Root Worm)
Maize sprouts placed onto an agar layer in 24-well microtiter plates were treated with aqueous test solutions prepared from 10,000 ppm DMSO stock solutions by spraying. After drying, the plates were infested with L2 larvae (6 to 10 per well). The samples were assessed for mortality and growth inhibition in comparison to untreated samples 4 days after infestation.

[2] = test system: Euschistus heros (Neotropical Brown Stink Bug); experiment: Activity against Euschistus heros; details: 120 h, read-out: effect in at least one of the two categories (mortality or growth inhibition); for percent effect (mortality or growth inhibition) at 200 ppm: application rate of 200 ppm, soybean leaves, N2 nymphs, 5 days after infestation; for percent control (mortality or growth inhibition) at 200 ppm: in Glycine max
Procedure: Example B3: Activity Against Euschistus heros (Neotropical Brown Stink Bug)
Soybean leaves on agar in 24-well microtiter plates were sprayed with aqueous test solutions prepared from 10,000 ppm DMSO stock solutions. After drying the leaves were infested with N2 nymphs. The samples were assessed for mortality and growth inhibition in comparison to untreated samples 5 days after infestation.

[3] = test system: Myzus persicae (Green Peach Aphid); experiment: Activity against Myzus persicae: systemic activity; details: 144 h
Procedure: Example B6: Activity Against Myzus persicae (Green Peach Aphid). Systemic Activity
Roots of pea seedlings infested with an aphid population of mixed ages were placed directly into aqueous test solutions prepared from 10,000 DMSO stock solutions. The samples were assessed for mortality 6 days after placing seedlings into test solutions.

[4] = test system: Myzus persicae (Green Peach Aphid); experiment: Activity against Myzus persicae: feeding/contact activity; details: foliar, 144 h
Procedure: Example B5: Activity Against Myzus persicae (Green Peach Aphid): Feeding/Contact Activity
Sunflower leaf discs were placed onto agar in a 24-well microtiter plate and sprayed with aqueous test solutions prepared from 10,000 ppm DMSO stock solutions. After drying, the leaf discs were infested with an aphid population of mixed ages. The samples were assessed for mortality 6 days after infestation.

[5] = test system: Spodoptera littoralis (Egyptian Cotton Leaf Worm); experiment: Activity against Spodoptera littoralis (cotton leaf discs, spray); details: foliar, 72 h, read-out: control (mortality, anti-feeding effect, growth inhibition)
Procedure: Example B9: Activity Against Spodoptera littoralis (Egyptian Cotton Leaf Worm)
Cotton leaf discs were placed onto agar in 24-well microtiter plates and sprayed with aqueous test solutions prepared from 10,000 ppm DMSO stock solutions. After drying the leaf discs were infested with five L1 larvae. The samples were assessed for mortality, anti-feeding effect, and growth inhibition in comparison to untreated samples 3 days after infestation. Control of Spodoptera littoralis by a test sample is given when at least one of the categories mortality, anti-feedant effect, and growth inhibition is higher than the untreated sample.

[6] = test system: Spodoptera littoralis (Egyptian Cotton Leaf Worm); experiment: Activity against Spodoptera littoralis (lettuce, uptake by the roots from agar); details: 144 h, read-out: effect in at least one of the three categories (mortality, anti-feeding, or growth inhibition); for percent effect (mortality, anti-feeding or growth inhibition) at 12.5 ppm: test rate of 12.5 ppm, lettuce grown on treated agar, Spodoptera eggs, 6 days after infestation
From the text: Example B10: Activity Against Spodoptera littoralis (Egyptian Cotton Leaf Worm)
Test compounds were applied by pipette from 10,000 ppm DMSO stock solutions into 24-well plates and mixed with agar. Lettuce seeds were placed onto the agar and the multi well plate was closed by another plate which contained also agar. After 7 days the compound was absorbed by the roots and the lettuce grew into the lid plate. The lettuce leaves were then cut off into the lid plate. Spodoptera eggs were pipetted through a plastic stencil onto a humid gel blotting paper and the lid plate was closed with it. The samples were assessed for mortality, anti-feedant effect and growth inhibition in comparison to untreated samples 6 days after infestation.

[7] = test system: Plutella xylostella (Diamond Back Moth); experiment: Activity against Plutella xylostella; details: 120 h, read-out: effect in at least one of the two categories (mortality or growth inhibition); for percent effect (mortality or growth inhibition) at 200 ppm: application rate of 200 ppm, artificial diet, L2 larvae, 5 days after infestation
Procedure: Example B8: Activity Against Plutella xylostella (Diamond Back Moth)
24-well microtiter plates with artificial diet were treated with aqueous test solutions prepared from 10,000 ppm DMSO stock solutions by pipetting. After drying, the plates were infested with L2 larvae (10 to 15 per well). The samples were assessed for mortality and growth inhibition in comparison to untreated samples 5 days after infestation.

[8] = test system: Myzus persicae (Green Peach Aphid); experiment: Activity against Myzus persicae: intrinsic activity; details: 120 h
From the text: Example B7: Activity Against Myzus persicae (Green Peach Aphid). Intrinsic Activity
Test compounds prepared from 10,000 ppm DMSO stock solutions were applied by pipette into 24-well microtiter plates and mixed with sucrose solution. The plates were closed with a stretched Parafilm. A plastic stencil with 24 holes was placed onto the plate and infested pea seedlings were placed directly on the Parafilm. The infested plate was closed with a gel blotting paper and another plastic stencil and then turned upside down. The samples were assessed for mortality 5 days after infestation.

[9] = test system: Bemisia tabaci (Cotton White Fly); experiment: Activity against Bemisia tabaci: feeding/contact activity; details: foliar, 144 h, application rate of 200 ppm, cotton leaf discs, adult white flies, 6 days after incubation
Procedure: Example B1: Activity Against Bemisia tabaci (Cotton White Fly): Feeding/Contact Activity
Cotton leaf discs were placed on agar in 24-well microtiter plates and sprayed with aqueous test solutions prepared from 10,000 ppm DMSO stock solutions. After drying the leaf discs were infested with adult white flies. The samples were checked for mortality 6 days after incubation.

[10] = test system: Aedes aegypti (Yellow Fever Mosquito); experiment: Activity against Aedes aegypti; details: 200 ppm in ethanol, dry deposit in 12 well plates, adult females, after 48 h and/or 24 h
Procedure: Example B13: Activity Against Aedes aegypti (Yellow Fever Mosquito)
Test solutions, at an application rate of 200 ppm in ethanol, were applied to 12 well tissue culture plates. Once the deposits were dry, five, two to five day old adult female Aedes aegypti were added to each well, and sustained with a 10% sucrose solution in a cotton wool plug. Assessment of knockdown was made one hour after introduction, and mortality was assessed at 24 and 48 hours after introduction.

[11] = test system: Frankliniella occidentalis (Western Flower Thrips); experiment: Activity against Frankliniella occidentalis: feeding/contact activity; details: foliar, 168 h, application rate of 200 ppm, sunflower leaf discs, population of mixed ages, 7 days after infestation
Procedure: Example B4: Activity Against Frankliniella occidentalis (Western Flower Thrips): Feeding/Contact Activity
Sunflower leaf discs were placed on agar in 24-well microtiter plates and sprayed with aqueous test solutions prepared from 10,000 DMSO stock solutions. After drying the leaf discs were infested with a Frankliniella population of mixed ages. The samples were assessed for mortality 7 days after infestation.

[12] = test rate of 24 ppm, roots of infested pea seedlings in test solution, 6 days, read-out: mortality
[13] = application rate of 200 ppm, sunflower leaf discs, aphid population of mixed ages, 6 days after infestation, read-out: mortality
[14] = application rate of 200 ppm, cotton leaf discs, L1 larvae, 3 days after infestation
[15] = test rate of 12 ppm, sucrose solution under Parafilm, 5 days after infestation, read-out: mortality

CCS(=O)(=O)c1cc2nc(C)sc2cc1-c1nc2cc(C(F)(F)F)ncc2n1C [Compound A19, 5-ethylsulfonyl-2-methyl-6-[3-methyl-6-(trifluoromethyl)imidazo[4,5-c]pyridin-2-yl]-1,3-benzothiazole]
≥ 80%: percent effect (mortality or growth inhibition) at 200 ppm [1] | percent effect (mortality or growth inhibition) at 200 ppm [2] | mortality at 24 ppm [3, 12] | mortality at 200 ppm [4, 13] | mortality at 200 ppm [5, 14] | percent effect (mortality, anti-feeding or growth inhibition) at 12.5 ppm [6]

CCSc1cc2c(nc1-c1nc3cc(C(F)(F)F)ncc3n1C)CC(C)(C)O2 [Compound A58, 6-ethylsulfanyl-2,2-dimethyl-5-[3-methyl-6-(trifluoromethyl)imidazo[4,5-c]pyridin-2-yl]-3H-furo[3,2-b]pyridine]
≥ 80%: percent effect (mortality or growth inhibition) at 200 ppm [1] | percent effect (mortality or growth inhibition) at 200 ppm [7] | percent effect (mortality or growth inhibition) at 200 ppm [2] | mortality at 12 ppm [8, 15] | mortality at 200 ppm [9] | mortality at 200 ppm [4, 13] | mortality at 200 ppm [5, 14]

CCS(=O)(=O)c1cc2cc(C(F)(F)C(F)(F)F)ccc2nc1-c1nc2cc(C(F)(F)F)ncc2n1C [Compound A52, 3-ethylsulfonyl-2-[3-methyl-6-(trifluoromethyl)imidazo[4,5-c]pyridin-2-yl]-6-(1,1,2,2,2-pentafluoroethyl)quinoline]
≥ 80%: percent effect (mortality or growth inhibition) at 200 ppm [1] | percent effect (mortality or growth inhibition) at 200 ppm [7] | percent effect (mortality or growth inhibition) at 200 ppm [2] | pest or weed control at 200 ppm [10] | mortality at 200 ppm [5, 14]

CCSc1cc2c(cc1-c1nc3cc(C(F)(F)F)ncc3n1C)nc(C(F)(F)F)n2C [Compound A39, 2-[6-ethylsulfanyl-1-methyl-2-(trifluoromethyl)benzimidazol-5-yl]-3-methyl-6-(trifluoromethyl)imidazo[4,5-c]pyridine]
≥ 80%: percent effect (mortality or growth inhibition) at 200 ppm [1] | percent effect (mortality or growth inhibition) at 200 ppm [7] | pest or weed control at 200 ppm [10]

CCSc1cc2ccccc2nc1-c1nc2cc(C(F)(F)F)ncc2n1C [Compound A21, 3-ethylsulfanyl-2-[3-methyl-6-(trifluoromethyl)imidazo[4,5-c]pyridin-2-yl]quinolone]
≥ 80%: percent control (mortality or growth inhibition) at 200 ppm [1] | percent control (mortality or growth inhibition) at 200 ppm [7] | percent control (mortality or growth inhibition) at 200 ppm [2] | mortality at 12 ppm [8] | mortality at 200 ppm [4] | mortality at 200 ppm [5]

CCS(=O)(=O)c1cc2cc(C#N)ccc2nc1-c1nc2cc(C(F)(F)F)ncc2n1C [Compound A50, 3-ethylsulfonyl-2-[3-methyl-6-(trifluoromethyl)imidazo[4,5-c]pyridin-2-yl]quinoline-6-carbonitrile]
≥ 80%: percent effect (mortality or growth inhibition) at 200 ppm [1] | percent effect (mortality or growth inhibition) at 200 ppm [7] | percent effect (mortality or growth inhibition) at 200 ppm [2] | mortality at 200 ppm [9] | mortality at 200 ppm [4, 13] | mortality at 200 ppm [5, 14] | percent effect (mortality, anti-feeding or growth inhibition) at 12.5 ppm [6]

CCS(=O)(=O)c1cc2nn(C)nc2cc1-c1nc2cc(C(F)(F)F)ncc2n1C [Compound A37, 5-ethylsulfonyl-2-methyl-6-[3-methyl-6-(trifluoromethyl)imidazo[4,5-c]pyridin-2-yl]benzotriazole]
≥ 80%: percent effect (mortality or growth inhibition) at 200 ppm [1] | percent effect (mortality or growth inhibition) at 200 ppm [7] | percent effect (mortality or growth inhibition) at 200 ppm [2] | mortality at 24 ppm [3, 12] | mortality at 200 ppm [11] | mortality at 200 ppm [4, 13] | mortality at 200 ppm [5, 14]

CCS(=O)(=O)c1cc2nc(C(F)(F)F)n(C)c2cc1-c1nc2cc(C(F)(F)F)ncc2n1C [Compound A8, 2-[6-ethylsulfonyl-3-methyl-2-(trifluoromethyl)benzimidazol-5-yl]-3-methyl-6-(trifluoromethyl)imidazo[4,5-c]pyridine]
≥ 80%: percent effect (mortality or growth inhibition) at 200 ppm [1] | percent effect (mortality or growth inhibition) at 200 ppm [7] | percent effect (mortality or growth inhibition) at 200 ppm [2] | pest or weed control at 200 ppm [10] | mortality at 200 ppm [9] | mortality at 24 ppm [3, 12] | mortality at 200 ppm [4, 13]

CCSc1cc2ccccc2cc1-c1nc2cc(C(F)(F)F)ncc2n1C [Compound A23, 2-(3-ethylsulfanyl-2-naphthyl)-3-methyl-6-(trifluoromethyl)imidazo[4,5-c]pyridine]
≥ 80%: percent effect (mortality or growth inhibition) at 200 ppm [1] | percent effect (mortality or growth inhibition) at 200 ppm [7] | percent effect (mortality or growth inhibition) at 200 ppm [2] | mortality at 12 ppm [8, 15] | mortality at 200 ppm [4, 13]

CCS(=O)(=O)c1cc2ccccc2cc1-c1nc2cc(C(F)(F)F)cnc2n1C [Compound A3, 2-(3-ethylsulfonyl-2-naphthyl)-3-methyl-6-(trifluoromethyl)imidazo[4,5-b]pyridine]
≥ 80%: percent effect (mortality or growth inhibition) at 200 ppm [1] | percent effect (mortality or growth inhibition) at 200 ppm [7] | percent effect (mortality or growth inhibition) at 200 ppm [2] | mortality at 12 ppm [8, 15] | mortality at 200 ppm [4, 13] | mortality at 200 ppm [5, 14]

CCS(=O)(=O)c1cc2ccccc2nc1-c1nc2cc(C(F)(F)F)ncc2n1C [Compound A22, 3-ethylsulfonyl-2-[3-methyl-6-(trifluoromethyl)imidazo[4,5-c]pyridin-2-yl]quinolone]
≥ 80%: percent control (mortality or growth inhibition) at 200 ppm [1] | percent control (mortality or growth inhibition) at 200 ppm [7] | percent control (mortality or growth inhibition) at 200 ppm [2] | pest or weed control at 200 ppm [10] | mortality at 12 ppm [8] | mortality at 24 ppm [3] | mortality at 200 ppm [4] | mortality at 200 ppm [5] | percent control (mortality, anti-feedant effect or growth inhibition) at 12.5 ppm [6]
